Data on eight molecules can be found in patent US11111227B2, “Rotigotine behenate, and manufacturing method and application thereof” (Shandong Luye Pharmaceutical Co., Ltd., priority 2016, dated 2021).

Data set [1] can be described thus: Test Example 3: pharmacokinetic performance of each drug injection in rats (intramuscular). It is filed as in vivo. Here is the method:
Test Example 3: Pharmacokinetic Performance of Each Drug Injection in Rats
Male SD rats (provided by Shandong Luye Pharma Group Ltd.), weighing 190-280 g, 12 rats, 3 rats in each group.
Vehicle containing 1% of HPMC was prepared, and rotigotine arachidate, rotigotine behenate and rotigotine lignocerate were added to the vehicle respectively to provide 10 mg/ml of suspensions (calculated as rotigotine).
The experimental animals were randomly divided into rotigotine arachidate group (A), rotigotine behenate group (B) and rotigotine lignocerate group (C), with 3 rats in each group, The rats in Groups A, B and C were intramuscularly injected with the corresponding drug (2 ml/kg).
Blood samples were taken from the eyelids of the rats in Groups A, B, and C before the administration (0 h) and at 0.25 h, 1 h, 6 h, 1 d, 2 d, 3 d, 5 d, 7 d, 9 d, 11 d, 14 d, 16 d, 18 d, 21 d, 25 d, 28 d, 30 d, 35 d, 39 d, 42 d after administration. Each blood sample was placed into heparinized EP tube, and was immediately centrifuged (3000 rpm) for 10 min. The plasma was separated and stored at −35° C. for testing.

Data set [2] can be described thus: Test Example 1: pharmacokinetic performance of rotigotine caprylate injection in rats (intramuscular). It is filed as in vivo. Here is the method:
Test Example 1: Pharmacokinetic Performance of Rotigotine Caprylate Injection in Rats
Rotigotine caprylate: prepared according to Comparative Example 1
Male SD rats (provided by Shandong Luye Pharma Group Ltd.), weighing 190-280 g, 3 rats.
Vehicle containing 1% of HPMC was prepared, and rotigotine caprylate was added to the vehicle to provide a 10 mg/ml of suspension (calculated as rotigotine). Three rats were intramuscularly injected with 2 mL/kg of the drug. Blood samples were taken from the eyelids of the rats before the administration (0 h) and at 0.25 h, 1 h, 6 h, 1 d, 2 d, 3 d, 5 d, 7 d, 9 d, 11 d, 14 d, 16 d, 18 d, 21 d, 24 d, 28 d after administration. Each blood sample was placed into heparinized EP tube, and was immediately centrifuged (3000 rpm) for 10 min. The plasma was separated and stored at −35° C. for testing.

The nature of data set [3]: Test Example 2: pharmacokinetic performance of each drug injection in rats (intramuscular, groups A-C). The class given is in vivo. Here is the method:
Test Example 2: Pharmacokinetic Performance of Each Drug Injection in Rats
(§1) Experimental animals: Male SD rats (provided by Shandong Luye Pharma Group Ltd.), weighing 190-280 g, 12 rats in total, 3 rats in each group.
(§2) Vehicle containing 1% of HPMC was prepared, and rotigotine oleate, rotigotine palmitate and rotigotine stearate were added to the vehicle respectively to provide 10 mg/ml of suspensions (calculated as rotigotine). Rotigotine hydrochloride was formulated as a 0.36 mg/ml injection (calculated as rotigotine) in normal saline.
(§3) The experimental animals were randomly divided into rotigotine oleate group (A), rotigotine palmitate group (B), rotigotine stearate group (C) and rotigotine hydrochloride group (D), with 3 rats in each group. The rats in Groups A, B, and C were intramuscularly injected with the corresponding drug (2 ml/kg), and the rats in group D were injected intravenously with the corresponding drug (2 ml/kg).
Blood samples were taken from the eyelids of the rats in Groups A, B, and C before the administration (0 h) and at 0.25 h, 1 h, 6 h, 1 d, 2 d, 3 d, 5 d, 7 d, 9 d, 11 d, 14 d, 16 d, 18 d, 21 d, 24 d, 28 d after administration. Each sample was placed into heparinized EP tube, and was immediately centrifuged (3000 rpm) for 10 min. The plasma was separated and stored at −35° C. for testing.

For data set [4] the following is noted: first-pass effect of the liver; cited from earlier work.
Data set [5] is described as follows: Test Example 2: rotigotine hydrochloride intravenous injection in rats (group D). It is filed as in vivo. To be noted: male, SD, rat, plasma, rotigotine hydrochloride intravenous 2 ml/kg of 0.36 mg/ml injection, read-out: Blood concentration in rats. Here is the method: Rotigotine hydrochloride: purity of 99.83%
as §1, §2, §3
Blood samples were taken from the eyelids of the rats in Group D before the administration (0 h) and at 3 min, 10 min, 0.25 h, 0.5 h, 1 h, 1.5 h, 2 h, 4 h, 6 h, 8 h, and 12 h after administration. Each blood sample was placed into heparinized EP tube, and was immediately centrifuged (3000 rpm) for 10 min. The plasma was separated and stored at −35° C. for testing.

For the molecule `CCCCCCCCCCCCCCCCCCCC(=O)Oc1cccc2c1CCC(N(CCC)CCc1cccs1)C2` (stereo not shown) [Rotigotine arachidate], the “Maintenance of the effective blood concentration” value (“Maintenance” below) in data set [1] is given as “maintained only for a short period of time”.

Take `CCCCCCCCCCCCCCCCCCCCCC(=O)Oc1cccc2c1CC[C@H](N(CCC)CCc1cccs1)C2` [Rotigotine behenate]: in data set [1], the “Maintenance” value is given as “more than two weeks”.

Take `CCCCCCCC(=O)Oc1cccc2c1CC[C@H](N(CCC)CCc1cccs1)C2` [Rotigotine caprylate]: the “Maintenance” value in data set [2] is “maintained only for a short period of time”.

As for `CCCCCCCCCCCCCCCCCCCCCCCC(=O)Oc1cccc2c1CCC(N(CCC)CCc1cccs1)C2` (stereo not shown) [Rotigotine lignocerate], the “Maintenance” value in data set [1] was “cannot be maintained for more than two weeks”.

For `CCCCCCCC/C=C\CCCCCCCC(=O)Oc1cccc2c1CCC(N(CCC)CCc1cccs1)C2` (stereo not shown) [Rotigotine oleate], the “Maintenance” value in data set [3] is listed as “maintained only for a short period of time”.

Turning to `CCCCCCCCCCCCCCCC(=O)Oc1cccc2c1CCC(N(CCC)CCc1cccs1)C2` (stereo not shown) [Rotigotine palmitate], the “Maintenance” value in data set [3] is “no more than two weeks”.

On to `CCCCCCCCCCCCCCCCCC(=O)Oc1cccc2c1CCC(N(CCC)CCc1cccs1)C2` (stereo not shown) [Rotigotine stearate], for which the “Maintenance” value in data set [3] was “no more than two weeks”.

In the case of `CCCN(CCc1cccs1)[C@H]1CCc2c(O)cccc2C1` [Rotigotine], the Oral bioavailability in data set [4] is given as 1%-5%. For the same molecule, the concentration at 1 h in data set [5] (0.72 mg/kg (calculated as rotigotine), 1 h) was 12.1 ng/mL. The concentration at 1.5 h in data set [5] (0.72 mg/kg (calculated as rotigotine), 1.5 h) was 7.25 ng/mL. In addition, the concentration at 2 h in data set [5] (0.72 mg/kg (calculated as rotigotine), 2 h) is 4.71 ng/mL. Further, the concentration at 0 h in data set [5] (0.72 mg/kg, 0 h (before administration)) worked out at 0 µg/mL. In addition, in data set [5] (0.72 mg/kg, 0.05 h), the concentration at 0.05 h worked out at 82.5 ng/mL. Besides, the concentration at 0.17 h in data set [5] (0.72 mg/kg, 0.17 h) amounted to 43.8 ng/mL. In addition, the concentration at 0.25 h in data set [5] (0.72 mg/kg, 0.25 h) was 45.4 ng/mL. In addition, in data set [5] (0.72 mg/kg, 0.5 h), the concentration at 0.5 h stood at 29 ng/mL. Also, the concentration at 4 h in data set [5] (0.72 mg/kg, 4 h) came to 0.99 ng/mL. Besides, the concentration at 8 h in data set [5] (0.72 mg/kg, 8 h) turned out to be 0.16 ng/mL. For the same molecule, in data set [5] (0.72 mg/kg, 12 h), the concentration at 12 h worked out at 0.04 ng/mL.
